{"source": "ChEMBL document CHEMBL4673225", "about": "“Highly Selective PTK2 Proteolysis Targeting Chimeras to Probe Focal Adhesion Kinase Scaffolding Functions” (J Med Chem, 2019)", "key": {"[1]": {"molecular_target": "T1, von Hippel-Lindau disease tumor suppressor/Focal adhesion kinase 1 (Homo sapiens, UniProt Q05397+P40337)", "experiment": "Protac activity at VHL/PTK2 in human SNU-387 cells assessed as induction of PTK2 degradation incubated for 18 hrs by protein capillary electrophoresis method", "assay_type": "cell-based"}, "[2]": {"molecular_target": "T1, von Hippel-Lindau disease tumor suppressor/Focal adhesion kinase 1", "experiment": "Protac activity at VHL/PTK2 in human SK-HEP1 cells assessed as induction of PTK2 degradation incubated for 18 hrs by protein capillary electrophoresis method relative to control", "assay_type": "cell-based"}, "[3]": {"molecular_target": "T1, von Hippel-Lindau disease tumor suppressor/Focal adhesion kinase 1", "experiment": "Protac activity at VHL/PTK2 in human A549 cells assessed as induction of PTK2 degradation incubated for 18 hrs by protein capillary electrophoresis method relative to control", "assay_type": "cell-based"}, "[4]": {"molecular_target": "T1, von Hippel-Lindau disease tumor suppressor/Focal adhesion kinase 1", "experiment": "Protac activity at VHL/PTK2 in human SNU-398 cells assessed as induction of PTK2 degradation incubated for 18 hrs by protein capillary electrophoresis method", "assay_type": "cell-based"}, "[5]": {"molecular_target": "T1, von Hippel-Lindau disease tumor suppressor/Focal adhesion kinase 1", "experiment": "Protac activity at VHL/PTK2 in human SNU-423 cells assessed as induction of PTK2 degradation incubated for 18 hrs by protein capillary electrophoresis method relative to control", "assay_type": "cell-based"}, "[6]": {"molecular_target": "T1, von Hippel-Lindau disease tumor suppressor/Focal adhesion kinase 1", "experiment": "Protac activity at VHL/PTK2 in human Hep3B2.1-7 cells assessed as induction of PTK2 degradation incubated for 18 hrs by protein capillary electrophoresis method relative to control", "assay_type": "cell-based", "conditions": "Hep3B"}, "[7]": {"molecular_target": "T1, von Hippel-Lindau disease tumor suppressor/Focal adhesion kinase 1", "experiment": "Protac activity at VHL/PTK2 in human HuCCT-1 cells assessed as induction of PTK2 degradation incubated for 18 hrs by protein capillary electrophoresis method relative to control", "assay_type": "cell-based"}, "[8]": {"molecular_target": "T1, von Hippel-Lindau disease tumor suppressor/Focal adhesion kinase 1", "experiment": "Protac activity at VHL/PTK2 in human HepG2 cells assessed as induction of PTK2 degradation incubated for 18 hrs by protein capillary electrophoresis method relative to control", "assay_type": "cell-based"}, "[9]": {"molecular_target": "T1, von Hippel-Lindau disease tumor suppressor/Focal adhesion kinase 1", "experiment": "Protac activity at VHL/PTK2 in human SNU-398 cells assessed as induction of PTK2 degradation incubated for 18 hrs by protein capillary electrophoresis method relative to control", "assay_type": "cell-based"}, "Focal adhesion kinase 1": {"molecular_target": "Focal adhesion kinase 1 (Homo sapiens, UniProt Q05397)", "sequence (Q05397 2-1052 limits assumed)": "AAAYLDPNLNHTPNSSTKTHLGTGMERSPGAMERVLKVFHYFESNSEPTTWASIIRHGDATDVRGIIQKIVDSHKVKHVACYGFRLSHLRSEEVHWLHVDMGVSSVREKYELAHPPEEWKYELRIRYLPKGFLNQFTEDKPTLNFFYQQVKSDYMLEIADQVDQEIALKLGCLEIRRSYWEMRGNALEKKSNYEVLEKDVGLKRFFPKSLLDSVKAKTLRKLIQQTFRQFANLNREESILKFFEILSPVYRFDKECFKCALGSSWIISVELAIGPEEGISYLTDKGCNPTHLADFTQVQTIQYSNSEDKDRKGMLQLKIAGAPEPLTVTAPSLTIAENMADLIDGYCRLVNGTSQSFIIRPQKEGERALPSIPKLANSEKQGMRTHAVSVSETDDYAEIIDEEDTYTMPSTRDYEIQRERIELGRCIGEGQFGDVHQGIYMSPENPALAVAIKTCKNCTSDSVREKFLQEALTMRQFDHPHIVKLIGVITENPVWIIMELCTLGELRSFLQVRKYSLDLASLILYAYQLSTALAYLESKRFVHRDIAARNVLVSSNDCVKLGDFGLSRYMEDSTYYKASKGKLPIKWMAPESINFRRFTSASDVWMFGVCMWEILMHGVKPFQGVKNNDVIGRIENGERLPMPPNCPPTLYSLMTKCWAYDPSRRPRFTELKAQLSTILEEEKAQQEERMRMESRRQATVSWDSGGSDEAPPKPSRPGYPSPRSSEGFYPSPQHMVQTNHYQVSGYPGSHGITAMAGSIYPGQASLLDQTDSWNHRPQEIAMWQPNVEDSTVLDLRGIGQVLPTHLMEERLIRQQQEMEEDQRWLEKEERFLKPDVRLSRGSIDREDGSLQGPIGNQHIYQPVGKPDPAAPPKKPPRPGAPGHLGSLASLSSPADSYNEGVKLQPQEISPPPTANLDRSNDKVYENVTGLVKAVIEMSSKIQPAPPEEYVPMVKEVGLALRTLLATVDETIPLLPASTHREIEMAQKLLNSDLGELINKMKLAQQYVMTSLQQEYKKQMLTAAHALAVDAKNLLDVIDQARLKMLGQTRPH", "experiment": "Inhibition of PTK2 (unknown origin) at 1 uM relative to control"}, "[10]": {"molecular_target": "T1, von Hippel-Lindau disease tumor suppressor/Focal adhesion kinase 1", "experiment": "Protac activity at VHL/PTK2 in human HuCCT-1 cells assessed as induction of PTK2 degradation incubated for 18 hrs by protein capillary electrophoresis method", "assay_type": "cell-based"}, "[11]": {"molecular_target": "T1, von Hippel-Lindau disease tumor suppressor/Focal adhesion kinase 1", "experiment": "Protac activity at VHL/PTK2 in human Hep3B2.1-7 cells assessed as induction of PTK2 degradation incubated for 18 hrs in presence of Cyclosporine by protein capillary electrophoresis method relative to control", "assay_type": "cell-based", "conditions": "Hep3B"}, "[12]": {"molecular_target": "T1, von Hippel-Lindau disease tumor suppressor/Focal adhesion kinase 1", "experiment": "Protac activity at VHL/PTK2 in human SNU-423 cells assessed as induction of PTK2 degradation incubated for 18 hrs by protein capillary electrophoresis method", "assay_type": "cell-based"}, "[13]": {"molecular_target": "Leucine-rich repeat serine/threonine-protein kinase 2 (Homo sapiens) (UniProt Q5S007)", "sequence (Q5S007 whole entry)": "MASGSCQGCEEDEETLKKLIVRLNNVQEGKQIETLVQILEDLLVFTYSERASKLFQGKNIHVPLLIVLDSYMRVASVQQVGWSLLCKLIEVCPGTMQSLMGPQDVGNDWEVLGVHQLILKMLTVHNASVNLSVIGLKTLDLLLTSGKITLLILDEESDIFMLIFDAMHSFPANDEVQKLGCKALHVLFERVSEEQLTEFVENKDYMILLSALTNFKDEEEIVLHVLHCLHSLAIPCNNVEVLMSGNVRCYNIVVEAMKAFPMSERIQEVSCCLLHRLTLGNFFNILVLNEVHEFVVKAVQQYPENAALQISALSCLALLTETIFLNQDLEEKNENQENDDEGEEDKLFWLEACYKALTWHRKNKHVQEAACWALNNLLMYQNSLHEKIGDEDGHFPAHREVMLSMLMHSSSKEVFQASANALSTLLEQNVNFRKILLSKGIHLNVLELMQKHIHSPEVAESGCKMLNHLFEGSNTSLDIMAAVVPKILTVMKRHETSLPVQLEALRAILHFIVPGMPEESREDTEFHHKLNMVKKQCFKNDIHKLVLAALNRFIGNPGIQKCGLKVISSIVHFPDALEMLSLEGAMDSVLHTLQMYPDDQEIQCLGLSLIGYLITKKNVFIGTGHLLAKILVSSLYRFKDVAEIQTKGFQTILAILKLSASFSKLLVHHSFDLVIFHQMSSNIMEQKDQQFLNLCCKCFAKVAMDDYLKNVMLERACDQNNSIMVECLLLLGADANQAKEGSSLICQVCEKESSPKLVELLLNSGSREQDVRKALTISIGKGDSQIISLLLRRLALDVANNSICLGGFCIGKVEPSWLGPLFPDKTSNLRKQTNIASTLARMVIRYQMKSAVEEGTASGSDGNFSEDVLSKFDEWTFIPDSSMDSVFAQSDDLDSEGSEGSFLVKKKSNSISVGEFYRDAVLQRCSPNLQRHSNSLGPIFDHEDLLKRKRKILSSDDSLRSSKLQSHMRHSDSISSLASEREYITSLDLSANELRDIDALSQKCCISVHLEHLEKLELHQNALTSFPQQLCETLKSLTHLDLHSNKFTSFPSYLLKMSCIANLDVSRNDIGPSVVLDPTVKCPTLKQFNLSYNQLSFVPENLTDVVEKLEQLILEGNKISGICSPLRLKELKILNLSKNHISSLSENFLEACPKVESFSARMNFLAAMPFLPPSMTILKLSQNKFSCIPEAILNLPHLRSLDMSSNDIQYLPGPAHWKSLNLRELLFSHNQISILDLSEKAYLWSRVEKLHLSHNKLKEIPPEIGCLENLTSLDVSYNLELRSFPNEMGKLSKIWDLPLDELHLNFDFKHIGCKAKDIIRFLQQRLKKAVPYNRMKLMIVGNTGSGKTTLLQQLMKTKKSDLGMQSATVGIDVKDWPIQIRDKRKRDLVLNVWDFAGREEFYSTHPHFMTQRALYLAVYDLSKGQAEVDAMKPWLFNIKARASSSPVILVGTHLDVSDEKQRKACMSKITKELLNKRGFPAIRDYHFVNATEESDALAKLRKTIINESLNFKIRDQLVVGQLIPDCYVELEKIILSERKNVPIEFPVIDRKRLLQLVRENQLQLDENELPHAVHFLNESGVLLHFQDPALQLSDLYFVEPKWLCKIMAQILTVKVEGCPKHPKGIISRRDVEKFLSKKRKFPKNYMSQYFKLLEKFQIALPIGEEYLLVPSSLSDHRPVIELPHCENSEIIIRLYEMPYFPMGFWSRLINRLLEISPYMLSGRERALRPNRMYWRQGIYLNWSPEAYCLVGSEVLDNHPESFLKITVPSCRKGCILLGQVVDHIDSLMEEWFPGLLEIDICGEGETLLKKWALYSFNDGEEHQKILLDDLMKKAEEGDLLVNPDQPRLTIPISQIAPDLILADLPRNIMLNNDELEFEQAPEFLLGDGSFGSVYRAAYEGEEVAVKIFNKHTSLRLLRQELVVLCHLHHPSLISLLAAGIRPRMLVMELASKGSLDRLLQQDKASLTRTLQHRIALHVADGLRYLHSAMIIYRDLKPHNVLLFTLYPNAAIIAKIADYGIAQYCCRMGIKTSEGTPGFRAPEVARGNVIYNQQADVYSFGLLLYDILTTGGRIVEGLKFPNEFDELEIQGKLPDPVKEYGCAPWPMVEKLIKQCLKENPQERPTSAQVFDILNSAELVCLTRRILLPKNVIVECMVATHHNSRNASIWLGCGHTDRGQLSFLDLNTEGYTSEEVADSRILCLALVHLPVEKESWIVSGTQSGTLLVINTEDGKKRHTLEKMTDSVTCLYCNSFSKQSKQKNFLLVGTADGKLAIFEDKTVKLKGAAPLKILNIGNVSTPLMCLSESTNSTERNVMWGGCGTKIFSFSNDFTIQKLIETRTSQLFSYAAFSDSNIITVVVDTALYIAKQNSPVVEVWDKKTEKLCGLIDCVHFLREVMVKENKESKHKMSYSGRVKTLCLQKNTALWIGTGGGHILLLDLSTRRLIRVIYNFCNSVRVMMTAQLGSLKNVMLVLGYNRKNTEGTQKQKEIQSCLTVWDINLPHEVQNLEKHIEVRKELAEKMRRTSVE", "experiment": "Inhibition of LRRK2 (unknown origin) at 1 uM relative to control"}, "[14]": {"molecular_target": "T1, von Hippel-Lindau disease tumor suppressor/Focal adhesion kinase 1", "experiment": "Protac activity at VHL/PTK2 in human SNU-387 cells assessed as induction of PTK2 degradation incubated for 18 hrs by protein capillary electrophoresis method relative to control", "assay_type": "cell-based"}, "[15]": {"molecular_target": "Tyrosine-protein kinase Fes/Fps (Homo sapiens) (UniProt P07332)", "sequence (P07332 whole entry)": "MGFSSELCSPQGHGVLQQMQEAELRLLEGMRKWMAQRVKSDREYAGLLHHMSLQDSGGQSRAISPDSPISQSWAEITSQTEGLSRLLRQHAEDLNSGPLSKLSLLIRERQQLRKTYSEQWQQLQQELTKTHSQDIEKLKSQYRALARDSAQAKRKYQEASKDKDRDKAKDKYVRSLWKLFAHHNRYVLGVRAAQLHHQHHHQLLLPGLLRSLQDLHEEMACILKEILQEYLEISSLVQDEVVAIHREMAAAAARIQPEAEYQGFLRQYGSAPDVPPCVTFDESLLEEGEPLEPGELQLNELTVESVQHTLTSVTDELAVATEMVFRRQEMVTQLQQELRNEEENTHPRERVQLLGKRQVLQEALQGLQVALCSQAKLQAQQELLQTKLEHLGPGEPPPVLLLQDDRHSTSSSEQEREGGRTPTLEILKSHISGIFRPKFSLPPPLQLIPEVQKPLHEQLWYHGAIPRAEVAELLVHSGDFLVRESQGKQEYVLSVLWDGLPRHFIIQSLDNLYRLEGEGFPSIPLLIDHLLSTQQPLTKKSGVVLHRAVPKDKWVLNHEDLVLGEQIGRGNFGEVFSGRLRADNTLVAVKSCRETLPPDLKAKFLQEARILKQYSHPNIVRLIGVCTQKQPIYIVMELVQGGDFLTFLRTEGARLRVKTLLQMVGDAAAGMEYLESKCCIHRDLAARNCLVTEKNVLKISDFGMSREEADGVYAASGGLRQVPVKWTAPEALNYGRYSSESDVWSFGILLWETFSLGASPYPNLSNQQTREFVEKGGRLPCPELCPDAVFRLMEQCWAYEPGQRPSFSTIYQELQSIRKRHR", "experiment": "Inhibition of FES (unknown origin) at 1 uM relative to control"}, "[16]": {"molecular_target": "T1, von Hippel-Lindau disease tumor suppressor/Focal adhesion kinase 1", "experiment": "Protac activity at VHL/PTK2 in human SK-HEP1 cells assessed as induction of PTK2 degradation incubated for 18 hrs by protein capillary electrophoresis method", "assay_type": "cell-based"}, "[17]": {"molecular_target": "T1, von Hippel-Lindau disease tumor suppressor/Focal adhesion kinase 1", "experiment": "Protac activity at VHL/PTK2 in human A549 cells assessed as time required for maximal induction of PTK2 degradation at 3 uM by protein capillary electrophoresis method", "assay_type": "cell-based"}, "[18]": {"molecular_target": "T1, von Hippel-Lindau disease tumor suppressor/Focal adhesion kinase 1", "experiment": "Protac activity at VHL/PTK2 in human HLF1 cells assessed as induction of PTK2 degradation incubated for 18 hrs by protein capillary electrophoresis method", "assay_type": "cell-based"}, "[19]": {"molecular_target": "T2, Protein cereblon/Focal adhesion kinase 1 (Homo sapiens, UniProt Q05397+Q96SW2)", "experiment": "Protac activity at CRBN/PTK2 in human A549 cells assessed as time required for maximal induction of PTK2 degradation at 3 uM by protein capillary electrophoresis method", "assay_type": "cell-based"}, "[20]": {"molecular_target": "T2, Protein cereblon/Focal adhesion kinase 1", "experiment": "Protac activity at CRBN/PTK2 in human SK-HEP1 cells assessed as induction of PTK2 degradation incubated for 18 hrs by protein capillary electrophoresis method relative to control", "assay_type": "cell-based"}, "[21]": {"molecular_target": "T2, Protein cereblon/Focal adhesion kinase 1", "experiment": "Protac activity at CRBN/PTK2 in human HLE cells assessed as induction of PTK2 degradation incubated for 18 hrs by protein capillary electrophoresis method", "assay_type": "cell-based"}, "[22]": {"experiment": "Stability in DMSO as solid form", "assay_type": "physicochemical"}, "[23]": {"molecular_target": "T2, Protein cereblon/Focal adhesion kinase 1", "experiment": "Protac activity at CRBN/PTK2 in human HuH-1 cells assessed as induction of PTK2 degradation incubated for 18 hrs by protein capillary electrophoresis method relative to control", "assay_type": "cell-based"}, "[24]": {"molecular_target": "T2, Protein cereblon/Focal adhesion kinase 1", "experiment": "Protac activity at CRBN/PTK2 in human Huh-7 cells assessed as induction of PTK2 degradation incubated for 18 hrs by protein capillary electrophoresis method relative to control", "assay_type": "cell-based"}, "[25]": {"molecular_target": "T2, Protein cereblon/Focal adhesion kinase 1", "experiment": "Protac activity at CRBN/PTK2 in human Hep3B2.1-7 cells assessed as induction of PTK2 degradation incubated for 18 hrs in presence of Cyclosporine A by protein capillary electrophoresis method", "assay_type": "cell-based", "conditions": "hep3b"}, "[26]": {"molecular_target": "T2, Protein cereblon/Focal adhesion kinase 1", "experiment": "Protac activity at CRBN/PTK2 in human HuCCT-1 cells assessed as induction of PTK2 degradation incubated for 18 hrs by protein capillary electrophoresis method", "assay_type": "cell-based"}, "[27]": {"molecular_target": "T2, Protein cereblon/Focal adhesion kinase 1", "experiment": "Protac activity at CRBN/PTK2 in human SK-HEP1 cells assessed as induction of PTK2 degradation incubated for 18 hrs by protein capillary electrophoresis method", "assay_type": "cell-based"}, "[28]": {"molecular_target": "T2, Protein cereblon/Focal adhesion kinase 1", "experiment": "Protac activity at CRBN/PTK2 in human SNU-398 cells assessed as induction of PTK2 degradation incubated for 18 hrs by protein capillary electrophoresis method relative to control", "assay_type": "cell-based"}, "[29]": {"molecular_target": "T2, Protein cereblon/Focal adhesion kinase 1", "experiment": "Protac activity at CRBN/PTK2 in human A549 cells assessed as induction of PTK2 degradation at 1 to 100000 nM incubated for 18 hrs in presence of NEDD8 inhibitor […] by protein capillary electrophoresis method", "assay_type": "cell-based", "conditions": "dose 1-100000 nM"}, "[30]": {"molecular_target": "T2, Protein cereblon/Focal adhesion kinase 1", "experiment": "Protac activity at CRBN/PTK2 in human HLE cells assessed as induction of PTK2 degradation incubated for 18 hrs by protein capillary electrophoresis method relative to control", "assay_type": "cell-based"}, "[31]": {"molecular_target": "T2, Protein cereblon/Focal adhesion kinase 1", "experiment": "Protac activity at CRBN/PTK2 in human HuH-1 cells assessed as induction of PTK2 degradation incubated for 18 hrs by protein capillary electrophoresis method", "assay_type": "cell-based"}, "[32]": {"molecular_target": "T2, Protein cereblon/Focal adhesion kinase 1", "experiment": "Protac activity at CRBN/PTK2 in human Hep3B2.1-7 cells assessed as induction of PTK2 degradation incubated for 18 hrs by protein capillary electrophoresis method", "assay_type": "cell-based", "conditions": "hep3b"}, "[33]": {"molecular_target": "T2, Protein cereblon/Focal adhesion kinase 1", "experiment": "Protac activity at CRBN/PTK2 in human A549 cells assessed as induction of PTK2 degradation incubated for 18 hrs by protein capillary electrophoresis method relative to control", "assay_type": "cell-based"}, "[34]": {"molecular_target": "T2, Protein cereblon/Focal adhesion kinase 1", "experiment": "Protac activity at CRBN/PTK2 in human HuCCT-1 cells assessed as induction of PTK2 degradation incubated for 18 hrs by protein capillary electrophoresis method relative to control", "assay_type": "cell-based"}, "[35]": {"molecular_target": "T2, Protein cereblon/Focal adhesion kinase 1", "experiment": "Protac activity at CRBN/PTK2 in human HepG2 cells assessed as induction of PTK2 degradation incubated for 18 hrs by protein capillary electrophoresis method relative to control", "assay_type": "cell-based"}}, "note": "The source made the active and inactive calls. No cut-off for these calls is given here.", "data": [{"smiles": "COc1cc(C(=O)NCCOCCOCCOCC(=O)N[C@H](C(=O)N2C[C@H](O)C[C@H]2C(=O)NCc2ccc(-c3scnc3C)cc2)C(C)(C)C)ccc1Nc1ncc(C(F)(F)F)c(Oc2cccc3c2C(=O)CC3)n1", "values": [{"measurement": "pDC50", "setting": "[1]", "result": 7.5}, {"measurement": "Emax", "setting": "[2]", "result": 87, "unit": "%"}, {"measurement": "Emax", "setting": "[3]", "result": 80, "unit": "%"}, {"measurement": "pDC50", "setting": "[4]", "result": 8}, {"measurement": "Emax", "setting": "[5]", "result": 87, "unit": "%"}, {"measurement": "Emax", "setting": "[6]", "result": 59, "unit": "%"}, {"measurement": "Emax", "setting": "[7]", "result": 86, "unit": "%"}, {"measurement": "Emax", "setting": "[8]", "result": 65, "unit": "%"}, {"measurement": "Emax", "setting": "[9]", "result": 99, "unit": "%"}, {"measurement": "inhibition", "setting": "Focal adhesion kinase 1", "result": "> 90", "unit": "%"}, {"measurement": "pDC50", "setting": "[10]", "result": 6.9}, {"measurement": "Emax", "setting": "[11]", "result": 88, "unit": "%"}, {"measurement": "pDC50", "setting": "[12]", "result": 7.1}, {"measurement": "inhibition", "setting": "[13]", "result": "> 90", "unit": "%"}, {"measurement": "Emax", "setting": "[14]", "result": 98, "unit": "%"}, {"measurement": "inhibition", "setting": "[15]", "result": "> 90", "unit": "%"}, {"measurement": "pDC50", "setting": "[16]", "result": 6.9}, {"measurement": "TIME", "setting": "[17]", "result": 72, "unit": "h"}, {"measurement": "pDC50", "setting": "[18]", "result": 7.4}]}, {"smiles": "COc1cc(C(=O)NCCOCCOCCOCCC(=O)Nc2cccc3c2C(=O)N(C2CCC(=O)NC2=O)C3=O)ccc1Nc1ncc(C(F)(F)F)c(Oc2cccc3c2C(=O)CC3)n1", "note": "(stereo unspecified)", "values": [{"measurement": "TIME", "setting": "[19]", "result": 18, "unit": "h"}, {"measurement": "Emax", "setting": "[20]", "result": 89, "unit": "%"}, {"measurement": "pDC50", "setting": "[21]", "result": 6.8}, {"measurement": "Stabilty", "setting": "[22]", "result": "> 3", "unit": "months"}, {"measurement": "Emax", "setting": "[23]", "result": 50, "unit": "%"}, {"measurement": "Emax", "setting": "[24]", "result": 93, "unit": "%"}, {"measurement": "pDC50", "setting": "[25]", "result": 9}, {"measurement": "pDC50", "setting": "[26]", "result": 7.9}, {"measurement": "pDC50", "setting": "[27]", "result": 7.5}, {"measurement": "Emax", "setting": "[28]", "result": 95, "unit": "%"}, {"measurement": "Activity", "setting": "[29]", "result": "inactive"}, {"measurement": "Emax", "setting": "[30]", "result": 79, "unit": "%"}, {"measurement": "pDC50", "setting": "[31]", "result": 6.6}, {"measurement": "pDC50", "setting": "[32]", "result": 7.9}, {"measurement": "Emax", "setting": "[33]", "result": 95, "unit": "%"}, {"measurement": "Emax", "setting": "[34]", "result": 90, "unit": "%"}, {"measurement": "Emax", "setting": "[35]", "result": 89, "unit": "%"}]}]}
